Results from patent publication US20020055458A1, “Method for the prevention and treatment of retinopathy” (priority 2000, published 2002).

Key:
[1] = system: optic nerve oxygen tension (ONPo2); conditions: pig; Stefánsson et al., IOVS 1999; cited from earlier work
[2] = system: diabetic retinopathy in patients with diabetes mellitus; test: Retrospective clinical study of progression of diabetic retinopathy in diabetics on glaucoma eye drops; format: in vivo, human; conditions: for two year event rate (progression of retinopathy): diabetic patients on eye drops for glaucoma or ocular hypertension, 2 years from onset of medication, CAI group n=19, non-CAI group n=12
Description: In a retrospective clinical study, the hypothesis that dorzolamide eye drops (Trusopt®) used bid or tid for glaucoma or ocular hypertension would slow the progression of diabetic retinopathy in patients with diabetes mellitus was tested. Since 1980, a screening program has been in place for diabetic eye disease at the Department of Ophthalmology, University of Iceland, Reykjavik, Iceland. Eye examinations of diabetic patients have been performed annually and examination results have been documented. A retrospective study was undertaken to find those diabetics who were using CAIs or beta-blockers (such as timolol) for either glaucoma or ocular hypertension. These candidates were selected from the general population of the screening program. In total, 31 patients were found. Of these 31, 19 were prescribed CAIs or a combination of CAIs and beta-blockers. The remaining 12 patients were taking a non-CAI medication and served as a control group in the study. The examination findings were reviewed to determine if the changes in retinopathy rating could be associated with CAI use. Also noted was historical information such as length of time since diabetes had been diagnosed, type of medication and time span of usage, visual acuity and other relevant comments. Of those using a CAI, 12 were men and seven were women. The mean age was 67 (range 28-80) for men and 73 (range 62-81) for women. The average time since diagnosis of diabetes mellitus was 14.1 years (SD=9.7 years). The average frequency of check-ups was every 9.1 months (SD=10.7 months). There was an average of 7.4 years of eye examinations and fundus photographs on record (SD=6 years) and the patients were on a CAI for an average of 18.2 months (SD=14.4 months). Of those in the non-CAI (control) group, seven were men and five were women. The mean age was 73 (range 54-82) for men and 75 (range 67-86) for women. The average time since diabetic diagnosis was 15.3 years (SD=7.8 years). The average frequency of check-ups was every 10.9 months (SD=7.9 months). There was an average of 6.2 years of eye examinations and fundus photographs on record (SD=4 years) and the patients were on medication for an average of 58.8 months (SD=52.4 months).

Row | SMILES | effect on optic nerve oxygen tension (ONPo2) [1] | two year event rate (progression of retinopathy) [2] | development of sight-threatening retinopathy during the treatment period ([2]; diabetics in the treated group) | rate of progression of diabetic retinopathy compared with diabetics receiving timolol eye drops and with the total population of diabetics in Iceland ([2]; diabetics using eye drops on a regular basis) | overall event rate (retinopathy change) for the entire observation period ([2]; non-CAI (control) group, 12 diabetic patients, entire observation period)
1 | CC(=O)Nc1nnc(S(N)(=O)=O)s1 [Acetazolamide, N-[5-(aminosulfonyl)-1,3,4-thiadiazol-2-yl]acetamide] | increased ONPo2 |  |  |  | 
2 | CCN[C@H]1C[C@H](C)S(=O)(=O)c2sc(S(N)(=O)=O)cc21 [dorzolamide] | increased ONPo2 | 0% | none | lower rate of progression of diabetic retinopathy | 
3 | CC(C)(C)NC[C@H](O)COc1nsnc1N1CCOCC1 [timolol] |  | 8.3% |  |  | 25%
